Measurements as given in US9079915B2, “Thienyl- and furanyl-isoquinolinones and methods for using them” (priority 2008, dated 2015).

Tests used:
Format in all cases: in vivo
[1] = tested on: Wistar rats, 90 min tMCAO; experiment: Transient middle cerebral artery occlusion (tMCAO) model; conditions: tMCAO rat
Protocol: (§1) Adult male Wistar rats (Charles River, Wilmington, Mass.) 290-310 g were used in all studies. Animal procedures were approved by the Institutional Animal Care and Use Committee and conducted in accordance with the guidelines of the National Institutes of Health.
(§2) Rats were anesthetized with 3% isoflurane in a mixture of 70% nitrous oxide and 30% oxygen through a nose cone. Core body temperature was maintained at 37° C. throughout the surgery using a heating lamp. tMCAO was induced for 90 min using the intraluminal suture method (Longa et al., Reversible middle cerebral artery occlusion without craniectomy in rats. Stroke 20:84-91, 1989). Briefly, an 18 mm length of 4-0 monofilament nylon suture coated with poly-L-lysine (Belayev et al., 1996) with a flame-rounded tip was inserted into the external carotid artery and advanced into the internal carotid to occlude the origin of the MCA Ninety minutes later rats were re-anesthetized, the suture withdrawn and the incision closed. Drug (test compound) or vehicle, were administered into the tail vein as a 3 IV bolus doses 3 hours apart in a volume of 2 ml/kg starting at 4 hours post-induction of stroke at various time intervals after the induction of stroke. Animals were tested for motor deficits using a scoring system described by (Bederson et al., 1986). A Bederson score of 5 (maximum) at 90 minutes post-induction of tMCAO was a criterion for inclusion in the trial. Motor deficits and body weight were monitored at 24 and 48 hours post-tMCAO. Neurological deficits were assessed by blinded operators. Rats were sacrificed at 48 hours post-tMCAO. Sham-operated controls were subjected to identical surgical procedures but without advancement of the monofilament into the MCA branching point. The same model was also used, but in addition to occlusion of middle cerebral arteries, both carotid arteries were occluded (CCAO) for the same time 90 minutes. This was Severe Transient MCAO.
After sacrifice, brains were extracted and 2 mm coronal sections were cut starting at 4 mm from the frontal pole using a rat brain matrix (Stoeling, Wood Dale, Ill.). Sections were stained by immersion in a 2% solution of 2,3,5-triphenyl tetrazolium chloride at 37° C. for 10 minutes and then in 10% neutral formalin for preservation. Digitized images of sections were collected using the MCID image analysis system (Imaging Research, Inc. Ontario, Canada), and the area of infarct determined for each slice. Total infarct volume was calculated by multiplying a sum of areas by the distance between them in mm.
Values are expressed as means±SEM for the indicated number of animals or number of in vitro experiments. The statistical significance of differences between means was calculated by one-way ANOVA with post-hoc Fisher test or Dunnett's comparison to control or with Student's t-test analysis, as appropriate. Linear mix model was used to assess differences between treatment groups during 3-week neurological function recovery testing post-pMCAO. Statistical significance was assumed at p<0.05.
The first study was conducted using a transient middle cerebral artery occlusion (tMCAO) model. Rats were subjected to 90 minutes tMCAO and compound (2-dimethylaminomethyl-9-hydroxythieno[2,3-c]isoquinolin-5(4H)-one) was administered using 3 bolus injections at 4, 7 and 10 hours post-ischemia and an intraperitoneal (IP) route of administration. The three doses evaluated were 0.1, 1 and 10 mg/kg. Dosing was initiated at 4 hours post-MCAO because it is a clinically relevant therapeutic time window to treatment. Infarct volumes and neurological testing were carried out at 48 hours post-ischemia. This model produces an extensive unilateral lesion that involves the motor cortex and striatum. It is used to assess acute neuroprotection and neurological function in a reperfusion model of stroke. […]

[2] = tested on: Wistar rats, severe permanent MCAO; experiment: Severe permanent MCAO model (intraluminal suture not removed); conditions: severe permanent MCAO rat, 3×1 mg/kg IP from 30 minutes post-ischemia, 24 hours
[3] = tested on: Wistar rats, severe tMCAO; experiment: Severe tMCAO model (MCA and both carotid arteries temporarily occluded); conditions: severe tMCAO rat, 48 hours
Protocol: as §1
as §2, with “Sham-operated controls were subjected to identical surgical procedures but without advancement of the monofilament into the MCA branching point. The same model was also used, but in addition to occlusion of middle cerebral arteries, both carotid arteries were occluded (CCAO) for the same time 90 minutes. This was Severe Transient MCAO.” left out
After sacrifice, brains were extracted and 2 mm coronal sections were cut starting at 4 mm from the frontal pole using a rat brain matrix (Stoeling, Wood Dale, Ill.). […] Digitized images of sections were collected using the MCID image analysis system (Imaging Research, Inc. Ontario, Canada), and the area of infarct determined for each slice. Total infarct volume was calculated by multiplying a sum of areas by the distance between them in mm.
Values are expressed as means±SEM for the indicated number of animals or number of in vitro experiments. The statistical significance of differences between means was calculated by one-way ANOVA with post-hoc Fisher test or Dunnett's comparison to control or with Student's t-test analysis, as appropriate. […]
In a third assay, a severe tMCAO model was used (where both MCAO and carotid arteries were temporarily occluded) to obtain an injury. […] Doses of 1 or 10 mg/kg of 2-dimethylaminomethyl-9-hydroxythieno[2,3-c]isoquinolin-5(4H)-one were given at 4, 7 and 10 hours and animals were evaluated for infarct size, weight loss and neurological score at 48 hours post-MCAO.

Wistar rats, pMCAO = experiment: Less severe permanent MCAO (pMCAO, distal MCA occlusion) model; conditions: pMCAO rat
Protocol: Adult male Wistar rats (Charles River, Wilmington, Mass.) 290-310 g were used in all studies. Animal procedures were approved by the Institutional Animal Care and Use Committee and conducted in accordance with the guidelines of the National Institutes of Health. Craniotomy was performed under isoflurane anesthesia. This was followed by electrocauterization of the distal portion of the MCA and a 90 minute ligation of both carotid arteries to limit collateral circulation during the initial stage of stroke, as described by Chen, et al. (Chen et al., 1986). Compound or vehicle, were administered as infusion starting at 4 hours post-induction of stroke and lasting 24 hours. Animals were maintained for long-term functional recovery assessment. Sensorimotor and reflex deficits were evaluated at 3-day intervals for 90 days according to (Bederson et al., 1986; De Ryck et al., 1989). Each trial included: postural test, two visual and two tactile forelimb placement tests and a hind limb placement test. Performance at each test was scored from 0 (no deficit) to 2 (severe deficit) for a maximum combined score of 12. Neurological scoring was performed in a blinded fashion. Values are expressed as means±SEM for the indicated number of animals or number of in vitro experiments. The statistical significance of differences between means was calculated by one-way ANOVA with post-hoc Fisher test or Dunnett's comparison to control or with Student's t-test analysis, as appropriate. Linear mix model was used to assess differences between treatment groups during 3-week neurological function recovery testing post-pMCAO. Statistical significance was assumed at p<0.05. A further efficacy study was conducted and employed a less severe permanent MCAO (pMCAO) model. This model, which utilized an occlusion of the distal portion of the middle cerebral artery, produced a much smaller injury contained within the sensorimotor cortex of the animal. The injury sustained in this model was less extensive but still involves the motor cortex and the rats can be assessed over the long-term (3 weeks to 3 months post-ischemia) for neurological function. In a first study with this model, rats were administered an IV bolus dose of 1, 3 or 10 mg/kg initiated at 4 hours post-ischemia and followed by 2 subsequent and equivalent doses at 7 and 10 hours. In a second study, rats were given a single IV bolus followed by a 24 hr IV infusion. Neurological function was tested every 2-3 days for 3 weeks post-MCAO.

[4] = 11.7 mg/kg IV bolus then 0.9 mg/hr infusion for 24 hours

## CN(C)Cc1cc2c([nH]c(=O)c3cccc(O)c32)s1 [2-dimethylaminomethyl-9-hydroxythieno[2,3-c]isoquinolin-5(4H)-one]
[1]; 1 mg/kg IP ×3, 48 hr post-MCAO
  neurological deficits: significantly reduced neurological deficits
[1]; 3.9 mg/kg IV bolus then 0.3 mg/hr infusion for 24 hours (lower dose)
  effect on neurological deficits, weight loss and infarct volume: No effect was seen
[1]; [4]
  ischemic-induced weight loss: significant reduction in ischemic-induced weight loss
  reduction in infarct volume (small but insignificant): 10%
[1]; 11.7 mg/kg IV bolus then 0.9 mg/hr infusion for 24 hours from 4 hours post-tMCAO, 48 hours
  neurological deficits: significant reduction in neurological deficits
[1]; 3×0.1 mg/kg IP at 4, 7 and 10 hours post-ischemia, 48 hours
  reduction of infarct volume vs vehicle: 20%
[1]; 3×1 mg/kg IP at 4, 7 and 10 hours post-ischemia, 48 hours
  reduction of infarct volume vs vehicle: 55%
[1]; 3×10 mg/kg IP at 4, 7 and 10 hours post-ischemia, 48 hours
  reduction of infarct volume vs vehicle: 66%
[2]
  infarct volume smaller than vehicle: 42%
[3]; 3 times 1 mg/kg IV bolus at 4, 7 and 10 hours
  infarct volume smaller than vehicle: 22%
[3]; 3 times 10 mg/kg IV bolus at 4, 7 and 10 hours
  infarct volume smaller than vehicle: 19%
[3]; 3 times 1 or 10 mg/kg IV bolus
  ischemia-induced weight loss: reduction of ischemia-induced weight loss
  neurological deficits: reduction of neurological deficits
Wistar rats, pMCAO; 3.5 mg/kg IV bolus plus 2.5 mg/hr IV infusion for 24 hours
  time for which neurological recovery was maintained following ischemia: at least 3 months
Wistar rats, pMCAO; 3.5 mg/kg IV bolus plus 2.5 mg/hr IV infusion for 24 hours, 39 days post-ischemia
  neurological deficits: significantly reduced neurological deficits
Wistar rats, pMCAO; multiple IV bolus 10 mg/kg, 21 days post-ischemia
  neurological function, 10 mg/kg dose: approached efficacy
Wistar rats, pMCAO; multiple IV bolus 1, 3 or 10 mg/kg at 4, 7 and 10 hours, 21 days post-ischemia
  neurological function: no significant improvement in neurological function
